According to patent US9943519B2, “Pharmaceutical compounds” (F.HOFFMANN-LA ROCHE AG, priority 2006, dated 2018):

Tests used:
[1] = target: human PI3K isoform beta (p110 beta) (Homo sapiens, UniProt P42338); test: p110 isoform selectivity scintillation proximity assay (beta); format: biochemical; conditions: ratio of IC50 values, SPA, purified human PI3K isoforms
Experimental: (§1) Binding of compounds of the invention from above Tables 1a and 1b to purified preparations of p110 isoforms alpha, beta, delta, and gamma was measured by a Scintillation Proximity Assay (SPA) to determine binding activity (IC50 μMol) and selectivity of binding of beta, delta, and gamma isoforms relative to alpha (Example 8). These values are expressed in Table 2.
(§2) The ability of representative compounds from Tables 1a and 1b to inhibit the lipid kinase activity of purified preparations of human PI3K isoforms alpha, beta, delta, and gamma was determined by a radiometric scintillation proximity assay (SPA, GE Healthcare, Amersham Biosciences). Concentration dependent inhibition at 50% (IC50 μMol) was determined for all four isoforms […] and fold potency over beta, delta, and gamma relative to alpha was calculated for a selection of compounds in Table 2. Each compound has a p110 alpha IC50<1 μMol.

[2] = target: human PI3K isoform delta (p110 delta) (Homo sapiens, UniProt O00329); test: p110 isoform selectivity scintillation proximity assay (delta); format: biochemical; conditions: ratio of IC50 values, SPA, purified human PI3K isoforms
human PI3K isoform delta (p110 delta), sequence (O00329 whole entry, canonical isoform): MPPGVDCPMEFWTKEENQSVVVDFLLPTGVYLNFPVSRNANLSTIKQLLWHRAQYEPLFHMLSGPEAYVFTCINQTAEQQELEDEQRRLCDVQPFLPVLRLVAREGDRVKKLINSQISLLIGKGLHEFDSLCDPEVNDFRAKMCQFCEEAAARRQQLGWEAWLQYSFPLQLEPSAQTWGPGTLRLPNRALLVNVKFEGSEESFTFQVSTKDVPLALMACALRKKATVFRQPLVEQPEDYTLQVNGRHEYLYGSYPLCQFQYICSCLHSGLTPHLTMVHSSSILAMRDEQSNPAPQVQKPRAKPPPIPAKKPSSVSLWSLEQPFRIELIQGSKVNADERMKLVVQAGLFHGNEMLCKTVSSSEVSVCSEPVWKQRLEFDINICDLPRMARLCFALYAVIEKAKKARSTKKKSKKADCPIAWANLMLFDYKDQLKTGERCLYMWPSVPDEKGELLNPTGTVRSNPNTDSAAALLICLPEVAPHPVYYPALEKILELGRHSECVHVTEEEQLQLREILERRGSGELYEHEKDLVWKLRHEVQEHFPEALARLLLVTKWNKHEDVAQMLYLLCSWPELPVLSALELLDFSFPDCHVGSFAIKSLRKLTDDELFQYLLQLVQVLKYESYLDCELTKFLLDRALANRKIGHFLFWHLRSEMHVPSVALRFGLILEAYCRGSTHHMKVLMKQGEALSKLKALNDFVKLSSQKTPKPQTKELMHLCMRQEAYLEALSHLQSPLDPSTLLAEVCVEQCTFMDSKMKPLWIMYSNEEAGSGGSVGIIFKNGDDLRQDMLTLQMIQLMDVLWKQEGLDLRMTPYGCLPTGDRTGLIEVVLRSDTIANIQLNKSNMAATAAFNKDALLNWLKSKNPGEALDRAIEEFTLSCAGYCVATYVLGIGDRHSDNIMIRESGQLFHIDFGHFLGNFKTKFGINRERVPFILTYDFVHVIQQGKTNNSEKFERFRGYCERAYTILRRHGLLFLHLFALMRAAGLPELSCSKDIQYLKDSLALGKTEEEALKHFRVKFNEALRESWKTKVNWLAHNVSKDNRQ
human PI3K isoform delta (p110 delta), sequence (P27986 whole entry partner, canonical isoform): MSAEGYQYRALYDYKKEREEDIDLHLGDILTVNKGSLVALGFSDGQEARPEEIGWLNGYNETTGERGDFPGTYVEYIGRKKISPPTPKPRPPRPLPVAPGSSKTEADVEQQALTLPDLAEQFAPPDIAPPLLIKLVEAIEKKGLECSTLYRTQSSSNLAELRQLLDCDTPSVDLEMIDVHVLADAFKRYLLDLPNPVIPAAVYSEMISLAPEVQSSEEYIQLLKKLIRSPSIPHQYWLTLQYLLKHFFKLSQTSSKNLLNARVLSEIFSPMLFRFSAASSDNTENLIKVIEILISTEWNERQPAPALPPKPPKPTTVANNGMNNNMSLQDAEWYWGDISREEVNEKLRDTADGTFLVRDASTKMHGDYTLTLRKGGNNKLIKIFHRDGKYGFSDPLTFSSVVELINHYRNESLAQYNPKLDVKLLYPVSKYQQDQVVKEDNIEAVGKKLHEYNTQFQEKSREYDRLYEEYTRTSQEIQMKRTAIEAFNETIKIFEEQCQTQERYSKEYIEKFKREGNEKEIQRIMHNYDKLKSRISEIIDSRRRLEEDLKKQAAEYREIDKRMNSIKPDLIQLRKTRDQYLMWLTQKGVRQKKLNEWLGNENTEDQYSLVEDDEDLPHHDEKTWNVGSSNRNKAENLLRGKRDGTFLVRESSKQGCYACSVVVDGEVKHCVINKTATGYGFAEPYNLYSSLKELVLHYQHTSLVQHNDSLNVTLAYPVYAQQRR
Experimental: as §1, §2

[3] = target: human PI3K isoform gamma (p110 gamma) (Homo sapiens, UniProt P48736); test: p110 isoform selectivity scintillation proximity assay (gamma); format: biochemical; conditions: ratio of IC50 values, SPA, purified human PI3K isoforms
human PI3K isoform gamma (p110 gamma), sequence (P48736 whole entry, canonical isoform): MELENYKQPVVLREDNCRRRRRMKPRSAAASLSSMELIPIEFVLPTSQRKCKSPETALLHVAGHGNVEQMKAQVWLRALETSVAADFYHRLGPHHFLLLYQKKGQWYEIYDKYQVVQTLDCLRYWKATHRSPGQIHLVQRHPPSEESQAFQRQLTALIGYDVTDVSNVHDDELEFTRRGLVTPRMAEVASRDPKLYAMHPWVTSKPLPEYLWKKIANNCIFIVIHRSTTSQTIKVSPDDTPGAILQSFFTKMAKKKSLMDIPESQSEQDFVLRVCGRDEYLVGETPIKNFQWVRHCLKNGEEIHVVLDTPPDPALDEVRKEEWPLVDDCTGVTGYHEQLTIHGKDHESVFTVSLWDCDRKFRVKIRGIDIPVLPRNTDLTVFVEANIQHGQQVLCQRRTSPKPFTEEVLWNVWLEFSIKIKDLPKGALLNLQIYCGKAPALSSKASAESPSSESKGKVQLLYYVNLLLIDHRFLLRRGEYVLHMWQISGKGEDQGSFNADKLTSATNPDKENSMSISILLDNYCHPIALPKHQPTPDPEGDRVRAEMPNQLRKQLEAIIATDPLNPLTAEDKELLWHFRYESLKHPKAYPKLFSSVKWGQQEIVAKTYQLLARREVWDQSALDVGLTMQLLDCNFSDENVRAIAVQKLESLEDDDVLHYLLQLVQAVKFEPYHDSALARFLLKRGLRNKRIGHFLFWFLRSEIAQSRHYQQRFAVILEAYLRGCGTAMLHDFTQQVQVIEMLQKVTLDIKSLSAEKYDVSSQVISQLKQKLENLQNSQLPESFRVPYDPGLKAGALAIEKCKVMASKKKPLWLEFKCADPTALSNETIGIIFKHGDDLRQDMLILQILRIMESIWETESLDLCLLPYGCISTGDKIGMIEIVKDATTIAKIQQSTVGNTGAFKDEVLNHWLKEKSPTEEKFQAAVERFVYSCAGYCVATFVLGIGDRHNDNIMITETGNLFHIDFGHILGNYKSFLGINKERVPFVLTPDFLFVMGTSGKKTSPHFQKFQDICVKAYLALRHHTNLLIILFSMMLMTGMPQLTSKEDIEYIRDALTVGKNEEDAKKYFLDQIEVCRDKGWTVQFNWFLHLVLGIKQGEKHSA
Experimental: as §1, §2

Caco-2 cells = test: Caco-2 permeability; format: in vitro ADME; conditions: bidirectional Caco-2 assay
Experimental: Caco-2 cells were seeded onto Millipore Multiscreen plates at 1×10^5 cells/cm^2, and were cultured for 20 days. Assessment of compound permeability was subsequently conducted. The compounds were applied to the apical surface (A) of cell monolayers and compound permeation into the basolateral (B) compartment was measured. This was performed in the reverse direction (B−A) to investigate active transport. A permeability coefficient value, Papp, for each compound, a measure of the rate of permeation of the compound across the membrane, was calculated. Compounds were grouped into low (Papp</=[…]) or high (Papp>/=[…]) absorption potential based on comparison with control compounds with established human absorption.
For assessment of a compound's ability to undergo active efflux, the ratio of basolateral (B) to apical (A) transport compared with A to B was determined. Values of B−A/A−B>/=1.0 indicated the occurrence of active cellular efflux. All of the compounds tested through the Caco-2 permeability screen had Papp values >/=[…].

human PI3K isoform beta (p110 beta), sequence (P42338 whole entry, canonical isoform): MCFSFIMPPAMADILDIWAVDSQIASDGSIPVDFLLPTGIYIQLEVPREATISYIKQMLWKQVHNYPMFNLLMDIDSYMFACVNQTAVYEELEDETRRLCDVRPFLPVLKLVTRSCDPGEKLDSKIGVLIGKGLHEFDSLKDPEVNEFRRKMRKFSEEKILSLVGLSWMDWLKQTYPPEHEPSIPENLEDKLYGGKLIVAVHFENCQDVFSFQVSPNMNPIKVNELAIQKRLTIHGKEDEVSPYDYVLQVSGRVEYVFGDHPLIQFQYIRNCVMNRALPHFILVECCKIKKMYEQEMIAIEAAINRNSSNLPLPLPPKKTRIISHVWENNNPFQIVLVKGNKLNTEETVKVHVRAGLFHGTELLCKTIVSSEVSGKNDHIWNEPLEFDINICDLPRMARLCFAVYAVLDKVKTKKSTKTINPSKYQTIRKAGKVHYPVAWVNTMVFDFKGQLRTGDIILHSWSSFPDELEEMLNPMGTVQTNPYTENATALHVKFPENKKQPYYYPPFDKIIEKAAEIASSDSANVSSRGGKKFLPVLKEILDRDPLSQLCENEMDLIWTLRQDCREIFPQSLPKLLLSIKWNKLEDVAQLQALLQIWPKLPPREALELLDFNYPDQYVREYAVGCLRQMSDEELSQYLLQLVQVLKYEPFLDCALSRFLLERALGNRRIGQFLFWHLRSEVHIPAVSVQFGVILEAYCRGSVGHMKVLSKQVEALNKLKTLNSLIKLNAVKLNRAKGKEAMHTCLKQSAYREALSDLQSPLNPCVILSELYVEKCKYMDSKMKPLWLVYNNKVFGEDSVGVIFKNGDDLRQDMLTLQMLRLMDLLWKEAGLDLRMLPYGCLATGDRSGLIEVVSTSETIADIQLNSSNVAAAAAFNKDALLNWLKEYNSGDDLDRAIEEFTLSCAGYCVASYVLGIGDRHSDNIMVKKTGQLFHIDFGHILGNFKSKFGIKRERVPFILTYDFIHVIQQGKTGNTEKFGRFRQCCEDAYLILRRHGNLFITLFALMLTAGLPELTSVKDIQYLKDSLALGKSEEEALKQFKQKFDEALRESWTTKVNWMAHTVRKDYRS
human PI3K isoform beta (p110 beta), sequence (P27986 whole entry partner, canonical isoform): as the sequence (P27986 whole entry partner, canonical isoform) above

SMILES	alpha/beta (fold potency over beta relative to alpha) [1] [fold]	alpha/delta (fold potency over delta relative to alpha) [2] [fold]	alpha/gamma (fold potency over gamma relative to alpha) [3] [fold]	B−A/A−B asymmetry index (Caco-2 cells)
CS(=O)(=O)N1CCN(Cc2cc3nc(-c4cncc5ccccc45)nc(N4CCOCC4)c3s2)CC1 [Compound 90, 4-[6-(4-Methanesulfonyl-piperazin-1-ylmethyl)-4-morpholin-4-yl-thieno[3,2-d]pyrimidin-2-yl]-isoquinoline]	>10	<10	>10	–
CS(=O)(=O)N1CCN(Cc2cc3c(N4CCOCC4)nc(-c4cncc5ccccc45)nc3s2)CC1 [Compound 94, 4-[6-(4-Methanesulfonyl-piperazin-1-ylmethyl)-4-morpholin-4-yl-thieno[2,3-d]pyrimidin-2-yl]-isoquinoline]	>10	<10	>10	–
CS(=O)(=O)N1CCN(Cc2cc3c(N4CCOCC4)nc(-c4cnc5ccccc5c4)nc3s2)CC1 [Compound 95, 3-[6-(4-Methanesulfonyl-piperazin-1-ylmethyl)-4-morpholin-4-yl-thieno[2,3-d]pyrimidin-2-yl]-quinoline]	>10	>10	>10	–
CS(=O)(=O)N1CCN(Cc2cc3nc(-c4cnc5[nH]ccc5c4)nc(N4CCOCC4)c3s2)CC1 [Compound 133, 6-((4-methylsulfonylpiperazin-1-yl)methyl)-4-morpholino-2-(1H-pyrrolo[2,3-b]pyridin-5-yl)thieno[3,2-d]pyrimidine]	>10	<10	>10	–
CS(=O)(=O)N1CCN(Cc2cc3nc(-c4cccc5[nH]cnc45)nc(N4CCOCC4)c3s2)CC1 [Compound 139]	<10	<10	<10	–
CS(=O)(=O)N1CCN(Cc2cc3c(N4CCOCC4)nc(-c4cnc5[nH]ccc5c4)nc3s2)CC1 [Compound 140]	>10	>10	>10	–
CS(=O)(=O)N1CCN(Cc2cc3c(N4CCOCC4)nc(-c4cccc5[nH]ncc45)nc3o2)CC1 [Compound 141, 2-(1H-indazol-4-yl)-6-((4-methylsulfonylpiperazin-1-yl)methyl)-4-morpholinofuro[2,3-d]pyrimidine]	<10	<10	>10	–
CS(=O)(=O)N1CCN(Cc2cc3nc(-c4cnc5[nH]ccc5c4)nc(N4CCOCC4)c3o2)CC1 [Compound 142]	>10	<10	>10	–
CS(=O)(=O)N1CCN(Cc2cc3nc(-c4cnc5[nH]cnc5c4)nc(N4CCOCC4)c3s2)CC1 [Compound 144]	<10	<10	>10	–
CS(=O)(=O)N1CCN(Cc2cc3c(N4CCOCC4)nc(-c4cnc5[nH]cnc5c4)nc3s2)CC1 [Compound 147]	>10	>10	>10	–
Cc1nc2cc(-c3nc(N4CCOCC4)c4sc(CN5CCN(S(C)(=O)=O)CC5)cc4n3)ccc2[nH]1 [Compound 157, 6-(4-Methanesulfonyl-piperazin-1-ylmethyl)-2-(2-methyl-1H-benzoimidazol-5-yl)-4-morpholin-4-yl-thieno[3,2-d]pyrimidine]	>10	<10	>10	–
CN1CCN(Cc2cc3nc(-c4cccc(O)c4)nc(N4CCOCC4)c3s2)CC1 [PI540]	–	–	–	less than 1.0
